Data as given in patent US5939096A, “Liposome drug-loading method and composition” (priority 1997, dated 1999).
Where two headings read alike, the source gives them in different places.

Tests used:
[1] = not told, cited from earlier work
[2] = n-octanol/water, cited from earlier work
[3] = Table II; cited from earlier work
[4] = Permeability coefficient in HPC/cholesterol extruded vesicles; details: not told, permeability coefficient P, 60/40 HPC/cholesterol extruded vesicles (Table II)
Method: ^e in 60/40 (mol/mol) HPC/cholesterolextruded vesicles, at 25°
^e in 60/40 (mol/mol) HPC/cholesterolextruded vesicles.

[5] = Loading and calcium ionophore (A23187)-promoted release of entrapped nalidixic acid
Method: (FIG. 8, solid line) and 60° C. (broken line), respectively.
The experiment was carried out at two different temperatures to investigate how changes in lipid phase (i.e., gel versus liquid-crystalline) affects the penetration of molecules into the bilayer. When the suspension was incubated at 25° C.
A calcium ionophore, A23187, (10 micromolar) was added at either t=700 s (25° C.; FIG. 8--solid line) or at 350 s (60° C.; FIG. 8--broken line), and the fluorescence was monitored over the course of the experiment.

[6] = pH 9

5(6)-carboxyfluorescein
permeability coefficient P ([1]; pH 7): 8.1e-05 ×10⁻⁶ cm/s | permeability coefficient P ([1]; pH 8.2): 7.2e-07 ×10⁻⁶ cm/s | partition coefficient Kp ([2]; pH 6.9): 2.8 × 10^-3 | partition coefficient Kp ([2]; pH 8): 6.0 × 10^-5

CCn1cc(C(=O)O)c(=O)c2ccc(C)nc21 [nalidixic acid]
pKa [3]: 6.13 | Papp ([4]; 25° C.): 0.014 ×10⁻⁶ cm/s | Papp ([4]; 60° C.): 0.17 ×10⁻⁶ cm/s | loading t1/2 ([5]; 25° C.): 84 s | loading t1/2 ([5]; 60° C.): 7 s | enhancement of loading rate ([5]; 60° C. versus 25° C.): one order of magnitude

O=S(=O)(O)c1cc(O)c2ccc3c(S(=O)(=O)O)cc(S(=O)(=O)O)c4ccc1c2c34 [pyranine, 8-Hydroxypyrene-1,3,6-trisulfonic acid]
n-octanol/water partition coefficient Kp [6]: < 3 × 10^-5
